The test system of one assay is Cyperus iria. The assay is described as follows: Greenhouse herbicidal activity assay, post-emergence. Type of assay: in vivo. The conditions noted are these: Post-emergence test, rate 150 g a.i./hm^2; grade by fresh weight inhibition rate. The method in brief:
(§1)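 Weeds and crops grown in pots of nutrient soil in a growth chamber to the 3-6 leaf stage, then foliar-sprayed and air-dried. Fresh weight inhibition scored 14-21 days after treatment and graded A (≥80%) through E (<20%).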
As to `Cc1nnc(NC(=O)c2ccc(S(C)(=O)=O)c([S+]([O-])C3CC3)c2Cl)o1` (racemic) [Compound 3-78], the “Control efficacy grade, Cyperus iria” value is listed as “A (Fresh weight inhibition rate≥80% to 100%)”.

For `Cc1nnc(NC(=O)c2ccc(S(C)(=O)=O)c([S+]([O-])C3CCC3)c2Cl)o1` (racemic) [Compound 3-83], the “Control efficacy grade, Cyperus iria” value is reported as “A (Fresh weight inhibition rate≥80% to 100%)”.

For `Cc1nnc(NC(=O)c2ccc(S(C)(=O)=O)c([S+]([O-])C3CCCC3)c2Cl)o1` (racemic) [Compound 3-88], the “Control efficacy grade, Cyperus iria” value is “A (Fresh weight inhibition rate≥80% to 100%)”.

On to `Cc1nnc(NC(=O)c2ccc(S(C)(=O)=O)c([S+]([O-])C3CCCCC3)c2Cl)o1` (racemic) [Compound 3-93], for which the “Control efficacy grade, Cyperus iria” value is given as “A (Fresh weight inhibition rate≥80% to 100%)”.

`Cc1nnc(NC(=O)c2ccc(S(C)(=O)=O)c([S+]([O-])CC(F)(F)F)c2Cl)o1` (racemic) [Compound 3-98]: the “Control efficacy grade, Cyperus iria” value was “A (Fresh weight inhibition rate≥80% to 100%)”.

Take `Cc1nnc(NC(=O)c2ccc(S(C)(=O)=O)c([S+]([O-])CC(F)F)c2Cl)o1` (racemic) [Compound 3-103]: the “Control efficacy grade, Cyperus iria” value was “A (Fresh weight inhibition rate≥80% to 100%)”.

Regarding `C=CC[S+]([O-])c1c(S(C)(=O)=O)ccc(C(=O)Nc2nnc(C)o2)c1Cl` (racemic) [Compound 3-113], the “Control efficacy grade, Cyperus iria” value is “A (Fresh weight inhibition rate≥80% to 100%)”.

On to `C=C(C)C[S+]([O-])c1c(S(C)(=O)=O)ccc(C(=O)Nc2nnc(C)o2)c1Cl` (racemic) [Compound 3-143], for which the “Control efficacy grade, Cyperus iria” value is listed as “A (Fresh weight inhibition rate≥80% to 100%)”.

Turning to `Cc1nnc(NC(=O)c2ccc(S(C)(=O)=O)c([S+]([O-])CC#N)c2Cl)o1` (racemic) [Compound 3-193], the “Control efficacy grade, Cyperus iria” value is given as “A (Fresh weight inhibition rate≥80% to 100%)”.

The subject of a further assay is Digitaria sanguinalis. The description is as above. The assay is classed as in vivo. The settings on record: Post-emergence test, rate 150 g a.i./hm^2; grade by fresh weight inhibition rate. The method in brief:
as §1
Take `Cc1nnc(NC(=O)c2ccc(S(C)(=O)=O)c([S+]([O-])C3CC3)c2Cl)o1` (racemic) [Compound 3-78]: the “Control efficacy grade, Digitaria sanguinalis” value is on record as “A (Fresh weight inhibition rate≥80% to 100%)”.

Turning to `Cc1nnc(NC(=O)c2ccc(S(C)(=O)=O)c([S+]([O-])C3CCC3)c2Cl)o1` (racemic) [Compound 3-83], the “Control efficacy grade, Digitaria sanguinalis” value is “A (Fresh weight inhibition rate≥80% to 100%)”.

On to `Cc1nnc(NC(=O)c2ccc(S(C)(=O)=O)c([S+]([O-])C3CCCC3)c2Cl)o1` (racemic) [Compound 3-88], for which the “Control efficacy grade, Digitaria sanguinalis” value is given as “A (Fresh weight inhibition rate≥80% to 100%)”.

For the compound `Cc1nnc(NC(=O)c2ccc(S(C)(=O)=O)c([S+]([O-])C3CCCCC3)c2Cl)o1` (racemic) [Compound 3-93], the “Control efficacy grade, Digitaria sanguinalis” value is “A (Fresh weight inhibition rate≥80% to 100%)”.

With `Cc1nnc(NC(=O)c2ccc(S(C)(=O)=O)c([S+]([O-])CC(F)(F)F)c2Cl)o1` (racemic) [Compound 3-98], the “Control efficacy grade, Digitaria sanguinalis” value is recorded as “A (Fresh weight inhibition rate≥80% to 100%)”.

As for `Cc1nnc(NC(=O)c2ccc(S(C)(=O)=O)c([S+]([O-])CC(F)F)c2Cl)o1` (racemic) [Compound 3-103], the “Control efficacy grade, Digitaria sanguinalis” value was “A (Fresh weight inhibition rate≥80% to 100%)”.

In the case of `C=CC[S+]([O-])c1c(S(C)(=O)=O)ccc(C(=O)Nc2nnc(C)o2)c1Cl` (racemic) [Compound 3-113], the “Control efficacy grade, Digitaria sanguinalis” value is recorded as “A (Fresh weight inhibition rate≥80% to 100%)”.

`C=C(C)C[S+]([O-])c1c(S(C)(=O)=O)ccc(C(=O)Nc2nnc(C)o2)c1Cl` (racemic) [Compound 3-143]: the “Control efficacy grade, Digitaria sanguinalis” value is recorded as “A (Fresh weight inhibition rate≥80% to 100%)”.

As for `Cc1nnc(NC(=O)c2ccc(S(C)(=O)=O)c([S+]([O-])CC#N)c2Cl)o1` (racemic) [Compound 3-193], the “Control efficacy grade, Digitaria sanguinalis” value is on record as “B (Fresh weight inhibition rate≥260% to <80%)”.

The next assay has as its system Echinochloa crusgalli. The assay is described as above. The settings on record: Post-emergence test, rate 150 g a.i./hm^2; grade by fresh weight inhibition rate. Type of assay: in vivo. In short, it runs like this:
as §1
As for `Cc1nnc(NC(=O)c2ccc(S(C)(=O)=O)c([S+]([O-])C3CC3)c2Cl)o1` (racemic) [Compound 3-78], the “Control efficacy grade, Echinochloa crusgalli” value is “A (Fresh weight inhibition rate≥80% to 100%)”.

With `Cc1nnc(NC(=O)c2ccc(S(C)(=O)=O)c([S+]([O-])C3CCC3)c2Cl)o1` (racemic) [Compound 3-83], the “Control efficacy grade, Echinochloa crusgalli” value was “A (Fresh weight inhibition rate≥80% to 100%)”.

With `Cc1nnc(NC(=O)c2ccc(S(C)(=O)=O)c([S+]([O-])C3CCCC3)c2Cl)o1` (racemic) [Compound 3-88], the “Control efficacy grade, Echinochloa crusgalli” value was “A (Fresh weight inhibition rate≥80% to 100%)”.

For `Cc1nnc(NC(=O)c2ccc(S(C)(=O)=O)c([S+]([O-])C3CCCCC3)c2Cl)o1` (racemic) [Compound 3-93], the “Control efficacy grade, Echinochloa crusgalli” value is reported as “A (Fresh weight inhibition rate≥80% to 100%)”.

In the case of `Cc1nnc(NC(=O)c2ccc(S(C)(=O)=O)c([S+]([O-])CC(F)(F)F)c2Cl)o1` (racemic) [Compound 3-98], the “Control efficacy grade, Echinochloa crusgalli” value is recorded as “A (Fresh weight inhibition rate≥80% to 100%)”.

Take `Cc1nnc(NC(=O)c2ccc(S(C)(=O)=O)c([S+]([O-])CC(F)F)c2Cl)o1` (racemic) [Compound 3-103]: the “Control efficacy grade, Echinochloa crusgalli” value is on record as “A (Fresh weight inhibition rate≥80% to 100%)”.

`C=CC[S+]([O-])c1c(S(C)(=O)=O)ccc(C(=O)Nc2nnc(C)o2)c1Cl` (racemic) [Compound 3-113]: the “Control efficacy grade, Echinochloa crusgalli” value is on record as “A (Fresh weight inhibition rate≥80% to 100%)”.

Regarding `C=C(C)C[S+]([O-])c1c(S(C)(=O)=O)ccc(C(=O)Nc2nnc(C)o2)c1Cl` (racemic) [Compound 3-143], the “Control efficacy grade, Echinochloa crusgalli” value is recorded as “A (Fresh weight inhibition rate≥80% to 100%)”.

As for `Cc1nnc(NC(=O)c2ccc(S(C)(=O)=O)c([S+]([O-])CC#N)c2Cl)o1` (racemic) [Compound 3-193], the “Control efficacy grade, Echinochloa crusgalli” value is “A (Fresh weight inhibition rate≥80% to 100%)”.

The next assay concerns Eclipta prostrata. The assay is described as above. Type of assay: in vivo. The conditions noted are these: Post-emergence test, rate 150 g a.i./hm^2; grade by fresh weight inhibition rate. In short, it runs like this: as §1
For the compound `Cc1nnc(NC(=O)c2ccc(S(C)(=O)=O)c([S+]([O-])C3CC3)c2Cl)o1` (racemic) [Compound 3-78], the “Control efficacy grade, Eclipta prostrata” value is “A (Fresh weight inhibition rate≥80% to 100%)”.

Turning to `Cc1nnc(NC(=O)c2ccc(S(C)(=O)=O)c([S+]([O-])C3CCC3)c2Cl)o1` (racemic) [Compound 3-83], the “Control efficacy grade, Eclipta prostrata” value is recorded as “A (Fresh weight inhibition rate≥80% to 100%)”.

For `Cc1nnc(NC(=O)c2ccc(S(C)(=O)=O)c([S+]([O-])C3CCCC3)c2Cl)o1` (racemic) [Compound 3-88], the “Control efficacy grade, Eclipta prostrata” value is on record as “A (Fresh weight inhibition rate≥80% to 100%)”.

In the case of `Cc1nnc(NC(=O)c2ccc(S(C)(=O)=O)c([S+]([O-])C3CCCCC3)c2Cl)o1` (racemic) [Compound 3-93], the “Control efficacy grade, Eclipta prostrata” value is “A (Fresh weight inhibition rate≥80% to 100%)”.

As to `Cc1nnc(NC(=O)c2ccc(S(C)(=O)=O)c([S+]([O-])CC(F)(F)F)c2Cl)o1` (racemic) [Compound 3-98], the “Control efficacy grade, Eclipta prostrata” value is on record as “A (Fresh weight inhibition rate≥80% to 100%)”.

As to `Cc1nnc(NC(=O)c2ccc(S(C)(=O)=O)c([S+]([O-])CC(F)F)c2Cl)o1` (racemic) [Compound 3-103], the “Control efficacy grade, Eclipta prostrata” value is listed as “A (Fresh weight inhibition rate≥80% to 100%)”.

In the case of `C=CC[S+]([O-])c1c(S(C)(=O)=O)ccc(C(=O)Nc2nnc(C)o2)c1Cl` (racemic) [Compound 3-113], the “Control efficacy grade, Eclipta prostrata” value is given as “A (Fresh weight inhibition rate≥80% to 100%)”.

As for `C=C(C)C[S+]([O-])c1c(S(C)(=O)=O)ccc(C(=O)Nc2nnc(C)o2)c1Cl` (racemic) [Compound 3-143], the “Control efficacy grade, Eclipta prostrata” value is “A (Fresh weight inhibition rate≥80% to 100%)”.

Regarding `Cc1nnc(NC(=O)c2ccc(S(C)(=O)=O)c([S+]([O-])CC#N)c2Cl)o1` (racemic) [Compound 3-193], the “Control efficacy grade, Eclipta prostrata” value is recorded as “A (Fresh weight inhibition rate≥80% to 100%)”.

The subject of a further assay is Leptochloa chinensis. The description is as above. The assay is classed as in vivo. The settings on record: Post-emergence test, rate 150 g a.i./hm^2; grade by fresh weight inhibition rate. The method in brief: as §1
As for `Cc1nnc(NC(=O)c2ccc(S(C)(=O)=O)c([S+]([O-])C3CC3)c2Cl)o1` (racemic) [Compound 3-78], the “Control efficacy grade, Leptochloa chinensis” value is recorded as “A (Fresh weight inhibition rate≥80% to 100%)”.

Consider `Cc1nnc(NC(=O)c2ccc(S(C)(=O)=O)c([S+]([O-])C3CCC3)c2Cl)o1` (racemic) [Compound 3-83], for which the “Control efficacy grade, Leptochloa chinensis” value is “A (Fresh weight inhibition rate≥80% to 100%)”.

Regarding `Cc1nnc(NC(=O)c2ccc(S(C)(=O)=O)c([S+]([O-])C3CCCC3)c2Cl)o1` (racemic) [Compound 3-88], the “Control efficacy grade, Leptochloa chinensis” value is given as “A (Fresh weight inhibition rate≥80% to 100%)”.

On to `Cc1nnc(NC(=O)c2ccc(S(C)(=O)=O)c([S+]([O-])C3CCCCC3)c2Cl)o1` (racemic) [Compound 3-93], for which the “Control efficacy grade, Leptochloa chinensis” value is “A (Fresh weight inhibition rate≥80% to 100%)”.

On to `Cc1nnc(NC(=O)c2ccc(S(C)(=O)=O)c([S+]([O-])CC(F)(F)F)c2Cl)o1` (racemic) [Compound 3-98], for which the “Control efficacy grade, Leptochloa chinensis” value was “A (Fresh weight inhibition rate≥80% to 100%)”.

On to `Cc1nnc(NC(=O)c2ccc(S(C)(=O)=O)c([S+]([O-])CC(F)F)c2Cl)o1` (racemic) [Compound 3-103], for which the “Control efficacy grade, Leptochloa chinensis” value was “A (Fresh weight inhibition rate≥80% to 100%)”.

Turning to `C=CC[S+]([O-])c1c(S(C)(=O)=O)ccc(C(=O)Nc2nnc(C)o2)c1Cl` (racemic) [Compound 3-113], the “Control efficacy grade, Leptochloa chinensis” value was “A (Fresh weight inhibition rate≥80% to 100%)”.

With `C=C(C)C[S+]([O-])c1c(S(C)(=O)=O)ccc(C(=O)Nc2nnc(C)o2)c1Cl` (racemic) [Compound 3-143], the “Control efficacy grade, Leptochloa chinensis” value is recorded as “A (Fresh weight inhibition rate≥80% to 100%)”.

As for `Cc1nnc(NC(=O)c2ccc(S(C)(=O)=O)c([S+]([O-])CC#N)c2Cl)o1` (racemic) [Compound 3-193], the “Control efficacy grade, Leptochloa chinensis” value is recorded as “A (Fresh weight inhibition rate≥80% to 100%)”.

The values above are taken from patent US20250223268A1, “4-Methylsulfonylbenzamide Compound, Preparation Method, Herbicidal Composition And Use” (Jiangsu Flag Chemical Industry Co., Ltd., priority 2022, published 2025).
